Test results taken from patent publication US10822723B2, “Fusion protein crystal comprising a moiety” (Agency for Science, Technology and Research, priority 2015, dated 2020).

Legend:
[1] = biological target: T1, GFP-Inka1:Flag-PAK4cat crystal (Homo sapiens, UniProt O96013); test: Live cell imaging of GFP-Inka1:PAK4cat crystal growth; type: cell-based; details: 5 μM, FIG. 6d
T1 construct: the kinase catalytic domain of human PAK4 (278-591); expressed in transfected cells
Description: The cells were plated at 50% confluence glass cover slips overnight: plasmid transfection used GFP-iBox-Pak4cat and FLAG-iBox-Pak4cat constructs at a ratio of 4:1 to promote crystal nucleation. The cover slips were transferred to a Chamlide magnetic chamber (Live cell instruments, Seoul, Korea) with 5% CO2 at 37° C. for live imaging on an Zeiss Axiovert 200M Live Cell Imaging with a 10× objective. We imaged multiple chosen regions for 8 hours at 6 min intervals. To measure crystal growth rate, we used instead a Nikon Eclipse Ti microscope equipped with spinning disk confocal attachment (Yokogawa CSU-22 module) to avoid photo-damage. The cells were imaged at 60×1.4 NA objective at 2 min intervals. For SIM and confocal imaging, cells were fixed in non-hardening mounting media (Vectashield). The slides were imaged by Delta vision OMX SIM with a 100×1.4 NA objective. Confocal imaging used an Olympus FV1000 upright system with 60×1.42NA objective. The 3D stacks were analyzed by IMARIS software.

[2] = biological target: T2, PAK4cat (Homo sapiens, UniProt O96013); test: In vitro kinase assay, phosphorylation of GST-Raf13 by PAK4cat; type: biochemical; details: FIG. 1c
T2 construct: PAK1 (1-545) and PAK4 (286-591), respectively; 6His (N); made in house; host or cells: Escherichia coli BL21-CodonPlus(DE3)
T2 sequence (O96013 286-591): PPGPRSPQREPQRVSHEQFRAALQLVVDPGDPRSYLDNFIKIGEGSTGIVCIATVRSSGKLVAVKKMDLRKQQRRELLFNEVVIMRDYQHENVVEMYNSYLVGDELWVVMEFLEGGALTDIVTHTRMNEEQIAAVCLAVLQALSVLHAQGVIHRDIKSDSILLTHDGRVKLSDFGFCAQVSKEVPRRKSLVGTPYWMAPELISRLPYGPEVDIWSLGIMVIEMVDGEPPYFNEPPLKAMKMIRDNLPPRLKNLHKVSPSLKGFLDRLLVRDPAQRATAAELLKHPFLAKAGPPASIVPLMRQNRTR
Description: (§1) Purified PAK1 or PAK4 (50 nM in 25-50 μl) were incubated with 10 μM GST-Raf1S338 peptide in 10 μM ATP (2 μCi of γ32P ATP) of kinase buffer (25 mM Hepes, pH 7.3, 0.1% Triton-X100, 50 mM KCl, 10 mM MgCl2, 1 mM DTT) at 30° C. for 20 min. Samples were analysed by SDS-polyacrylamide gel electrophoresis, or adsorption of the GST substrate mix onto PVDF membranes, followed by extensive washing to remove free γ32P-ATP. The synthetic peptides of 95% purity, as determined by HPLC and MS analyses (GenScript), were soluble in aqueous PBS. Stock solutions (10 mM) were quantified via calculated extinction coefficients and absorbance measurements at 280 nm and stored at −80° C. The diluted peptides were incubated at the indicated concentrations with the kinase on ice (10 min) before addition of γ32P ATP and subsequent incubation at 30° C. The synthetic peptide array (Jerini Biotools) was phosphorylated in situ as described previously.

[3] = biological target: PAK1 (Homo sapiens, UniProt Q13153); test: In vitro kinase assay, phosphorylation of GST-Raf13 by 6His-PAK1 (activated); type: biochemical; details: FIG. 1c
PAK1, sequence (Q13153 whole entry): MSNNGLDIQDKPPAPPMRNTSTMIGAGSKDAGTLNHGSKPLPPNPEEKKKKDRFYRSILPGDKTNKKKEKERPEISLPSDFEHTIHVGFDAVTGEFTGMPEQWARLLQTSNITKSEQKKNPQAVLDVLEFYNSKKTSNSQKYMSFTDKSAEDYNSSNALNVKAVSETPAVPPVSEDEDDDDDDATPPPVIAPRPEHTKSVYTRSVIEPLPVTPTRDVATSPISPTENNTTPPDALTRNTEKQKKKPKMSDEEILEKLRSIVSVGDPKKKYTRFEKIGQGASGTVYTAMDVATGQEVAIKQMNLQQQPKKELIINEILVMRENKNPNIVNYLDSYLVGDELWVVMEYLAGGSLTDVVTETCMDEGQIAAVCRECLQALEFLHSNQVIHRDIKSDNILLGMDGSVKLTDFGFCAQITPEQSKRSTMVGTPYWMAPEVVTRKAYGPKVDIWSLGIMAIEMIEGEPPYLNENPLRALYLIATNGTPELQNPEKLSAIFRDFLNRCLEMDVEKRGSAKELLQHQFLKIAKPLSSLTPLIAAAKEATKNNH
Description: as §1

T1 sequence (O96013 278-591): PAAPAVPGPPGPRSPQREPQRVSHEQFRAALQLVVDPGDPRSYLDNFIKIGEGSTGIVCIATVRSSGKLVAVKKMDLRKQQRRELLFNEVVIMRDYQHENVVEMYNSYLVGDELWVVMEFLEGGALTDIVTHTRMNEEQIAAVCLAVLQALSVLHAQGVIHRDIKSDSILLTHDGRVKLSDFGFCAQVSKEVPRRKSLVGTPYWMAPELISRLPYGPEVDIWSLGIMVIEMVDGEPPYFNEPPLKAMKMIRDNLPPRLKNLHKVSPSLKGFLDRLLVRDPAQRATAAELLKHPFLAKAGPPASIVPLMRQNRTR

Row | Molecule | GFP signal of co-crystals during the elongation phase ([1]; GFP-Inka1:HA-PAK4cat co-crystals) | crystal growth after drug addition ([1]; growing GFP-Inka1:Flag-PAK4cat crystal) | PAK4cat inhibition in vitro [2] | effect on PAK1 [3]
1 | Cc1nc(Nc2[nH]nc3c2CN(C(=O)N[C@H](CN(C)C)c2ccccc2)C3(C)C)c2sccc2n1 [PF-03758309] | depleted of GFP signal | slowed | – | –
2 | GST-iBox: recombinant 38 amino acid 'Inka box' (Inka1 residues 166-203) as GST fusion | – | – | potent | does not affect
